ChEMBL document CHEMBL3632591, “Discovery and structural diversity of the hepatitis C virus NS3/4A serine protease inhibitor series leading to clinical candidate IDX320” (Bioorg Med Chem Lett, 2015)

Tests used:
[1] = Intrinsic clearance in monkey liver microsomes; type: ADME, Macaca mulatta; conditions: rhesus monkey, read-out: CLH
[2] = Intrinsic clearance in rat liver microsomes; type: ADME; conditions: read-out: CLH
[3] = Half life in rat liver microsomes; type: ADME
[4] = Intrinsic clearance in human liver microsomes; type: ADME; conditions: read-out: CLH
[5] = Inhibition of recombinant full length HCV genotype 1b NS3/4A protease by FRET assay; design: species or system Hepatitis C virus subtype 1b
[6] = Cytotoxicity against human HuH7 cells by colorimetric proliferation assay; type: cell-based, Huh-7
[7] = Intrinsic clearance in rat cryopreserved hepatocytes assessed per 10^6 cells; type: ADME, cell-based, Hepatocyte; conditions: read-out: CLH
Hepatitis C virus = experiment: Antiviral activity against HCV genotype 1b infected in human HuH7 cells after 3 days by luciferase assay; type: functional, organism-based, Hepacivirus hominis; conditions: Huh-7, 72 h
[8] = AUCt in Sprague-Dawley rat at 2 mg/kg, iv administered as single dose; type: ADME, organism-based; conditions: in vivo
[9] = Cmax in Sprague-Dawley rat plasma at 10 mg/kg, po administered as single dose measured after 24 hrs; type: ADME, organism-based; design: dose 10 mg/kg, route oral
[10] = Oral bioavailability in Sprague-Dawley rat at 10 mg/kg administered as single dose; type: ADME, organism-based; conditions: in vivo
[11] = Half life in Sprague-Dawley rat at 10 mg/kg, po administered as single dose; type: ADME, organism-based; conditions: in vivo
[12] = Tmax in Sprague-Dawley rat at 10 mg/kg, po administered as single dose; type: ADME, organism-based; conditions: in vivo
[13] = AUCt in Sprague-Dawley rat at 10 mg/kg, po administered as single dose; type: ADME, organism-based; conditions: in vivo
[14] = AUC (infinity) in Sprague-Dawley rat at 2 mg/kg, iv administered as single dose; type: ADME, organism-based; design: dose 2 mg/kg, route intravenous, time infinity; conditions: in vivo
[15] = Cmax in Sprague-Dawley rat plasma at 2 mg/kg, iv administered as single dose measured after 8 hrs; type: ADME, organism-based; design: dose 2 mg/kg, route intravenous
[16] = Tmax in Sprague-Dawley rat at 2 mg/kg, iv administered as single dose; type: ADME, organism-based; conditions: in vivo
[17] = Clearance in Sprague-Dawley rat at 2 mg/kg, iv administered as single dose; type: ADME, organism-based; conditions: in vivo
[18] = AUC (infinity) in Sprague-Dawley rat at 10 mg/kg, po administered as single dose; type: ADME, organism-based; design: dose 10 mg/kg, time infinity, route oral; conditions: in vivo
[19] = Half life in Sprague-Dawley rat at 2 mg/kg, iv administered as single dose; type: ADME, organism-based; conditions: in vivo

Row | SMILES | IC50 [5] | CC50 [6] | EC50 (Hepatitis C virus) | also measured
1 | COc1ccc2c(OC[C@@H]3C[C@H]4C(=O)N(C)CCCC/C=C/[C@@H]5C[C@@]5(C(=O)NS(=O)(=O)C5(C)CC5)NC(=O)N34)cc(-c3nc(C(C)C)cs3)nc2c1C | – | – | – | microsomal CLint [1]: 500 µL/min/mg; microsomal CLint [2]: 364 µL/min/mg; half-life [3]: 0.0633 h; microsomal CLint [4]: 299 µL/min/mg
2 | COc1ccc2c(O[C@H]3C[C@H]4C(=O)N(C)CCCC/C=C/[C@@H]5C[C@@]5(C(=O)NS(=O)(=O)C5CC5)NC(=O)N4C3)cc(-c3csc(C(F)(F)F)n3)nc2c1C | 0.9 nM | 75000 nM | 8 nM | microsomal CLint [1]: 39.9 µL/min/mg; microsomal CLint [2]: 23.7 µL/min/mg; half-life [3]: 0.983 h; microsomal CLint [4]: 27.1 µL/min/mg; hepatocyte CLint [7]: 30 µL/min/1e6 cells
3 | C#Cc1csc(-c2cc(O[C@H]3C[C@H]4C(=O)N(C)CCCC/C=C/[C@@H]5C[C@@]5(C(=O)NS(=O)(=O)C5(C)CC5)NC(=O)N4C3)c3ccc(OC)c(Cl)c3n2)n1 | 0.5 nM | 17000 nM | 4 nM | –
4 | COc1ccc2c(O[C@H]3C[C@H]4C(=O)N(C)CCCC/C=C/[C@@H]5C[C@@]5(C(=O)NS(=O)(=O)C5(C)CC5)NC(=O)N4C3)cc(C#N)nc2c1C | 6.4 nM | 55800 nM | 499 nM | –
5 | COc1ccc2c(O[C@H]3C[C@H]4C(=O)N(C)CCCC/C=C/[C@@H]5C[C@@]5(C(=O)NS(=O)(=O)C5(C)CC5)NC(=O)N4C3)cc(-c3nc(C(C)C)cs3)nc2c1Br | 0.5 nM | 51200 nM | 29 nM | –
6 | COc1ccc2c(O[C@H]3C[C@H]4C(=O)N(C)CCCC/C=C/[C@@H]5C[C@@]5(C(=O)NS(=O)(=O)C5(C)CC5)NC(=O)N4C3)cc(-n3cc(C(C)C)nn3)nc2c1Cl | 7.3 nM | 28500 nM | 593 nM | –
7 | C#Cc1csc(-c2cc(O[C@H]3C[C@H]4C(=O)N(C)CCCC/C=C/[C@@H]5C[C@@]5(C(=O)NS(=O)(=O)C5CC5)NC(=O)N4C3)c3ccc(OC)c(C)c3n2)n1 | 0.9 nM | 14400 nM | 2.8 nM | –
8 | COc1ccc2c(O[C@H]3C[C@H]4C(=O)N(C)CCCC/C=C/[C@@H]5C[C@@]5(C(=O)NS(=O)(=O)C5CC5)NC(=O)N4C3)cc(-c3nc(C4CC4)cs3)nc2c1Cl | 1 nM | 31200 nM | 21 nM | –
9 | COc1ccc2c(O[C@H]3CCN4C(=O)N(C)CCCC/C=C/[C@@H]5C[C@@]5(C(=O)NS(=O)(=O)C5CC5)NC(=O)[C@@H]4C3)cc(-c3nc(C(F)(F)F)cs3)nc2c1C | 0.4 nM | > 75000 nM | 0.9 nM | –
10 | C#Cc1cccc(-c2cc(O[C@H]3C[C@H]4C(=O)N(C)CCCC/C=C/[C@@H]5C[C@@]5(C(=O)NS(=O)(=O)C5(C)CC5)NC(=O)N4C3)c3ccc(OC)c(C)c3n2)c1 | 7 nM | 75000 nM | 85 nM | –
11 | COc1ccc2c(O[C@H]3C[C@H]4C(=O)N(C)CCCC/C=C/[C@@H]5C[C@@]5(C(=O)NS(=O)(=O)C5(C)CC5)NC(=O)N4C3)cc(-c3nc(C(C)C)cs3)nc2c1F | 3.5 nM | 33500 nM | 538 nM | –
12 | COc1ccc2c(O[C@H]3C[C@H]4C(=O)N(C)CCCC/C=C/[C@@H]5C[C@@]5(C(=O)NS(=O)(=O)C5CC5)NC(=O)N4C3)cc(-c3noc(C)n3)nc2c1C | 25.7 nM | 75000 nM | > 750 nM | –
13 | COc1ccc2c(O[C@H]3C[C@H]4C(=O)N(C)CCCC/C=C/[C@@H]5C[C@@]5(C(=O)NS(=O)(=O)C5(C)CC5)NC(=O)N4C3)cc(-n3cc(C(C)C)cn3)nc2c1C | 0.9 nM | 9610 nM | 65 nM | –
14 | COc1ccc2c(O[C@H]3C[C@H]4C(=O)N(C)CCCC/C=C/[C@@H]5C[C@@]5(C(=O)NS(=O)(=O)C5CC5)NC(=O)N4C3)cc(-c3nc(C)cs3)nc2c1Cl | 1 nM | 75000 nM | 22 nM | –
15 | COc1ccc2c(O[C@H]3C[C@H]4C(=O)N(C)CCCC/C=C/[C@@H]5C[C@@]5(C(=O)NS(=O)(=O)C5(C)CC5)NC(=O)N4C3)cc(-c3nc(C(C)C)cs3)nc2c1Cl | 2.3 nM | 48500 nM | 56 nM | microsomal CLint [1]: 66.8 µL/min/mg; microsomal CLint [2]: 9.7 µL/min/mg; half-life [3]: 2.38 h; microsomal CLint [4]: 18.5 µL/min/mg; hepatocyte CLint [7]: 11.2 µL/min/1e6 cells
16 | COc1ccc2c(O[C@H]3C[C@H]4C(=O)N(C)CCCC/C=C/[C@@H]5C[C@@]5(C(=O)NS(=O)(=O)C5(C)CC5)NC(=O)N4C3)cc(-c3cc(C(C)C)on3)nc2c1Cl | 3.7 nM | 75000 nM | 669 nM | –
17 | COc1cc2c(O[C@H]3C[C@H]4C(=O)N(C)CCCC/C=C/[C@@H]5C[C@@]5(C(=O)NS(=O)(=O)C5(C)CC5)NC(=O)N4C3)cc(-c3nc(C(C)C)cs3)nc2cc1Cl | 8.6 nM | > 75000 nM | 191 nM | –
18 | C=Cc1csc(-c2cc(O[C@H]3C[C@H]4C(=O)N(C)CCCC/C=C/[C@@H]5C[C@@]5(C(=O)NS(=O)(=O)C5(C)CC5)NC(=O)N4C3)c3ccc(OC)c(Cl)c3n2)n1 | 0.8 nM | 57100 nM | 4 nM | –
19 | COc1ccc2c(O[C@H]3C[C@H]4C(=O)N(C)CCCC/C=C/[C@@H]5C[C@@]5(C(=O)NS(=O)(=O)C5(C)CC5)NC(=O)N4C3)cc(-c3nc(C4CCC4)cs3)nc2c1Cl | 1.3 nM | 75000 nM | 29 nM | –
20 | COc1ccc2c(O[C@H]3C[C@H]4C(=O)N(C)CCCC/C=C/[C@@H]5C[C@@]5(C(=O)NS(=O)(=O)C5(C)CC5)NC(=O)N4C3)cc(-n3cc(C(F)(F)F)cn3)nc2c1Cl | 0.4 nM | 21900 nM | 27 nM | –
21 | C#Cc1csc(-c2cc(O[C@H]3CCN4C(=O)N(C)CCCC/C=C/[C@@H]5C[C@@]5(C(=O)NS(=O)(=O)C5(C)CC5)NC(=O)[C@@H]4C3)c3ccc(OC)c(C)c3n2)n1 | 0.6 nM | > 75000 nM | 0.2 nM | –
22 | COc1ccc2c(O[C@H]3C[C@H]4C(=O)N(C)CCCC/C=C/[C@@H]5C[C@@]5(C(=O)NS(=O)(=O)C5(C)CC5)NC(=O)N4C3)cc(-c3csc(C(F)(F)F)n3)nc2c1Cl | 1 nM | 59000 nM | 19 nM | –
23 | COc1ccc2c(O[C@H]3C[C@H]4C(=O)N(C)CCCC/C=C/[C@@H]5C[C@@]5(C(=O)NS(=O)(=O)C5(C)CC5)NC(=O)N4C3)cc(-c3nc(C(F)(F)F)cs3)nc2c1C | 0.5 nM | 75000 nM | 13 nM | AUC(0-t) [8]: 2540 ng·h/mL; Cmax [9]: 406 ng/mL; bioavailability [10]: 18%; half-life [11]: 5.2 h; microsomal CLint [1]: 46.7 µL/min/mg; microsomal CLint [2]: 11.4 µL/min/mg; Tmax [12]: 1 h; half-life [3]: 2.03 h; AUC(0-t) [13]: 2230 ng·h/mL; AUC(0-inf) [14]: 2570 ng·h/mL; Cmax [15]: 2670 ng/mL; Tmax [16]: 4.8 min; microsomal CLint [4]: 24 µL/min/mg; clearance [17]: 13.2 mL/min/kg; hepatocyte CLint [7]: 17.4 µL/min/1e6 cells; AUC(0-inf) [18]: 2380 ng·h/mL; half-life [19]: 1.5 h
24 | COc1ccc2c(O[C@H]3C[C@H]4C(=O)N(C)CCCC/C=C/[C@@H]5C[C@@]5(C(=O)NS(=O)(=O)C5(C)CC5)NC(=O)N4C3)cc(-c3nc(C(C)C)cs3)nc2c1C | 1.8 nM | > 75000 nM | 72 nM | microsomal CLint [1]: 37.8 µL/min/mg; microsomal CLint [2]: 12.6 µL/min/mg; half-life [3]: 1.87 h; microsomal CLint [4]: 9.8 µL/min/mg; hepatocyte CLint [7]: 12.3 µL/min/1e6 cells
25 | COc1ccc2c(OC[C@@H]3C[C@H]4C(=O)N(C)CCCC/C=C/[C@@H]5C[C@@]5(C(=O)NS(=O)(=O)C5(C)CC5)NC(=O)N34)cc(-c3nc(C(C)C)cs3)nc2c1Cl | – | – | – | microsomal CLint [1]: 500 µL/min/mg; microsomal CLint [2]: 182 µL/min/mg; half-life [3]: 0.133 h; microsomal CLint [4]: 472 µL/min/mg
26 | C#Cc1csc(-c2cc(O[C@H]3C[C@H]4C(=O)N(C)CCCC/C=C/[C@@H]5C[C@@]5(C(=O)NS(=O)(=O)C5(C)CC5)NC(=O)N4C3)c3ccc(OC)c(C)c3n2)n1 | 0.9 nM | 75000 nM | 2.7 nM | –
27 | COc1ccc2c(O[C@H]3C[C@H]4C(=O)N(C)CCCC/C=C/[C@@H]5C[C@@]5(C(=O)NS(=O)(=O)C5(C)CC5)NC(=O)N4C3)cc(-c3csc(C(C)C)n3)nc2c1Cl | 0.8 nM | 30200 nM | 32 nM | –
28 | COc1ccc2c(O[C@H]3C[C@H]4C(=O)N(C)CCCC/C=C/[C@@H]5C[C@@]5(C(=O)NS(=O)(=O)C5(C)CC5)NC(=O)N4C3)cc(-c3nc(C(C)C)cs3)nc2c1 | 1.7 nM | 42700 nM | 508 nM | –
29 | COc1ccc2c(O[C@H]3C[C@H]4C(=O)N(C)CCCC/C=C/[C@@H]5C[C@@]5(C(=O)NS(=O)(=O)C5(C)CC5)NC(=O)N4C3)cc(-c3nc(C#N)cs3)nc2c1Cl | 10 nM | 75000 nM | 89 nM | –
